Experimental data taken from PMC11847391, “Synthesis and biological activities of 3-aminoimidazo[1,2-α]pyridine compounds” (BMC Chemistry, 2025).

What was measured:
[1] = system: MCF-7 human breast cancer cell line; test: Cytotoxicity, Trypan blue exclusion test, MCF-7; format: cell-based; conditions: for IC50: MCF-7, 24 h, Trypan blue exclusion, mean ± SD of two independent experiments
Protocol: (§1) The synthesized compounds were assessed for their cytotoxic effects on three different cancer cell lines: the MCF-7 human breast cancer cell line (ATCC number: HTB-22), the HT-29 human colorectal adenocarcinoma cell line [HTB-38; American Type Culture Collection (ATCC), Manassas, VA, USA], and the B16F10 murine melanoma cancer cell line [CRL-6475; American Type Culture Collection (ATCC), Manassas, VA, USA], as well as the normal cell line mouse Embryonic Fibroblast-1 cell line (MEF-1; ATCC CRL-2214). The cell line was cultivated in high-glucose Dulbecco’s Modified Eagle Medium (DMEM) that is supplemented with L-glutamine, phenol red (Fuji Film Wako, Osaka, Japan), 10% fetal bovine serum (FBS; G.E. Healthcare, Chicago, IL, USA), and 1% penicillin/streptomycin (P/S) (Nacalai Tesque, Kyoto, Japan). Exponentially growing cells (1 × 10^5 cells/well) were seeded in a 24-well plate with sterile-filtered DMEM medium at 37 °C under 5% CO2 and incubated overnight. The cells were then treated with different concentrations of test compounds (5, 10, 50, and 100 µg/mL) and incubated for 24 h in a humidified atmosphere. After 24 h of incubation, viable cells were counted in each well using the Trypan blue exclusion test. All compounds were initially dissolved in DMSO, and the final concentration of DMSO was less than 1% in all of the considered concentrations of the applied compounds. The IC50 values from at least two independent experiments were compared with the control and expressed as the mean ± SD. The analysis of two groups was performed using the student t-test, and P-values < 0.05 were statistically significant.

[2] = system: mouse Embryonic Fibroblast-1 cell line (MEF-1); test: Cytotoxicity, Trypan blue exclusion test, normal MEF cells; format: cell-based; conditions: for IC50: normal cell line MEF, 24 h, Trypan blue exclusion, mean ± SD of two independent experiments
Protocol: as §1

[3] = system: HT-29 human colorectal adenocarcinoma cell line; test: Cytotoxicity, Trypan blue exclusion test, HT-29; format: cell-based; conditions: for IC50: HT-29, 24 h, Trypan blue exclusion, mean ± SD of two independent experiments
Protocol: as §1

[4] = system: B16F10 murine melanoma cancer cell line; test: Cytotoxicity, Trypan blue exclusion test, B16F10; format: cell-based; conditions: for IC50: B16F10, 24 h, Trypan blue exclusion, mean ± SD of two independent experiments
Protocol: as §1

B16F10 cell line = test: Morphological changes of treated B16F10 cells; format: cell-based, murine; conditions: high concentrations (≥ 50 µg/ml), versus untreated cancer cells
Source text: (§2) In comparison to the control (untreated cancer cells), the three cancer cell lines (MCF-7, HT-29, and B16F10) were investigated for morphological changes after being treated with the synthesized compounds 9–19.

HT-29 cell line = test: Morphological changes of treated HT-29 cells; format: cell-based, human; conditions: high concentrations (≥ 50 µg/ml), versus untreated cancer cells
Source text: as §2

Structure (SMILES) | IC50 [1] | IC50 [2] | IC50 [3] | IC50 [4] | IC50 ([1]; Homo sapiens, MCF7, 24 h) | IC50 ([2]; Mus musculus, MEF) | IC50 ([3]; Homo sapiens) | other results
COc1ccc(-c2nc3ccccn3c2Nc2ccc(Cl)cc2)c(OC)c1OC [C00001] | > 200 µM | > 200 µM | > 200 µM | > 200 µM | – | – | – | –
COc1ccc(-c2nc3ccccn3c2Nc2ccc(Cl)cc2)cc1OCc1ccccc1 [C00002] | > 200 µM | 18.5 ± 0.33 µM | > 200 µM | > 200 µM | – | – | – | –
Clc1ccc(Nc2c(-c3c[nH]c4ccccc34)nc3ccccn23)cc1 [C00003] | 20.47 ± 0.1 µM | 1.84 ± 0.83 µM | 18.3 ± 1.22 µM | 39.2 ± 1.84 µM | – | – | – | –
Clc1ccc(Nc2c(-c3ccco3)nc3ccccn23)cc1 [C00005] | 66.5 ± 37.9 µM | 32.93 ± 0.09 µM | 48.3 ± 0.53 µM | 197 ± 14.4 µM | – | – | – | –
Cc1cccc(-c2nc3ccccn3c2Nc2ccc(Cl)cc2)c1 [C00006] | 195 ± 19.9 µM | – | – | – | – | – | – | –
COc1cccc(-c2nc3ccccn3c2Nc2ccc(Cl)cc2)c1OC [C00007] | > 200 µM | > 200 µM | > 200 µM | > 200 µM | – | – | – | –
Clc1ccc(Nc2c(-c3ccc4ccccc4c3)nc3ccccn23)cc1 [C00008] | – | > 200 µM | – | > 200 µM | – | – | – | –
Clc1ccc(Nc2c(-c3ccsc3)nc3ccccn23)cc1 [C00009] | > 200 µM | > 200 µM | > 200 µM | > 200 µM | – | – | – | –
Fc1ccc(-c2nc3ccccn3c2Nc2ccc(Cl)cc2)c(F)c1 [C00010] | – | 16.31 ± 0.08 µM | 10.1 ± 0.7 µM | 14.39 ± 0.04 µM | – | – | – | –
FC(F)(F)c1ccc(-c2nc3ccccn3c2Nc2ccc(Cl)cc2)cc1 [C00011] | > 200 µM | 63.9 ± 2.33 µM | 85.5 ± 18.8 µM | 195 ± 15.3 µM | – | – | – | –
COc1ccc(-c2nc3ccccn3c2Nc2ccc(Cl)cc2)c(OC)c1OC [Compound 9, N-(4-chlorophenyl)−2-(2,3,4-trimethoxyphenyl)imidazo[1,2-a]pyridin-3-amine] | – | – | – | – | – | – | – | Cytotoxicity against MCF-7 (in words) [1]: ineffective; Cytotoxicity against HT-29 (in words) [3]: ineffective; Cytotoxicity against B16F10 (in words) [4]: ineffective
COc1ccc(-c2nc3ccccn3c2Nc2ccc(Cl)cc2)cc1OCc1ccccc1 [Compound 10, 2-(3-(Benzyloxy)−4-methoxyphenyl)-N-(4-chlorophenyl)imidazo[1,2-a]pyridin-3-amine] | – | – | – | – | – | – | – | Cytotoxicity against MCF-7 (in words) [1]: ineffective; Cytotoxicity against HT-29 (in words) [3]: ineffective; Cytotoxicity against B16F10 (in words) [4]: ineffective
Clc1ccc(Nc2c(-c3c[nH]c4ccccc34)nc3ccccn23)cc1 [Compound 11, N-(4-chlorophenyl)−2-(1 H-indol-3-yl)imidazo[1,2-a]pyridin-3-amine] | – | < 1.84 µM | – | – | 20.47 ± 0.1 µM | 1.84 ± 0.83 µM | 18.3 ± 1.22 µM | IC50 ([4]; Mus musculus, B16-F10, 24 h): 39.2 ± 1.84 µM
O=[N+]([O-])c1ccccc1-c1nc2ccccn2c1Nc1ccc(Cl)cc1 [Compound 12, N-(4-chlorophenyl)−2-(2-nitrophenyl)imidazo[1,2-a]pyridin-3-amine] | – | – | – | – | 30.9 ± 14.4 µM | 40.5 ± 4.34 µM | 4.15 ± 2.93 µM | Morphological changes, B16F10 (B16F10 cell line): shrinkage and lost their original form; Morphological changes, HT-29 (HT-29 cell line): shrinkage and lost their original form; Cytotoxicity against normal cells relative to HT-29 (fold lower) ([2]; MEF IC50 versus HT-29 IC50): tenfold; IC50 ([4]; Mus musculus, B16-F10, 24 h): 64.8 ± 15.8 µM
Clc1ccc(Nc2c(-c3ccco3)nc3ccccn23)cc1 [Compound 13, N-(4-chlorophenyl)−2-(furan-2-yl)imidazo[1,2-a]pyridin-3-amine] | > 45 µM | – | > 45 µM | – | 66.5 ± 37.9 µM | 32.93 ± 0.09 µM | 48.3 ± 0.53 µM | –
Cc1cccc(-c2nc3ccccn3c2Nc2ccc(Cl)cc2)c1 [Compound 14, N-(4-chlorophenyl)−2-(m-tolyl)imidazo[1,2-a]pyridin-3-amine] | – | – | – | – | – | > 200 µM | 44.45 ± 0.15 µM | Morphological changes, B16F10 (B16F10 cell line): shrinkage and lost their original form; Morphological changes, HT-29 (HT-29 cell line): shrinkage and lost their original form; IC50 ([4]; Mus musculus, B16-F10, 24 h): 21.8 ± 0.81 µM
COc1cccc(-c2nc3ccccn3c2Nc2ccc(Cl)cc2)c1OC [Compound 15, N-(4-chlorophenyl)−2-(2,3-dimethoxyphenyl)imidazo[1,2-a]pyridin-3-amine] | – | – | – | – | – | – | – | Cytotoxicity against MCF-7 (in words) [1]: ineffective; Cytotoxicity against HT-29 (in words) [3]: ineffective; Cytotoxicity against B16F10 (in words) [4]: ineffective
Clc1ccc(Nc2c(-c3ccc4ccccc4c3)nc3ccccn23)cc1 [Compound 16, N-(4-chlorophenyl)−2-(naphthalen-2-yl)imidazo[1,2-a]pyridin-3-amine] | – | – | – | – | 84 ± 3.37 µM | – | 93.08 ± 0.61 µM | Cytotoxicity against B16F10 (in words) [4]: inactive
Clc1ccc(Nc2c(-c3ccsc3)nc3ccccn23)cc1 [Compound 17, N-(4-chlorophenyl)−2-(thiophen-3-yl)imidazo[1,2-a]pyridin-3-amine] | – | – | – | – | – | – | – | Cytotoxicity against MCF-7 (in words) [1]: ineffective; Cytotoxicity against HT-29 (in words) [3]: ineffective; Cytotoxicity against B16F10 (in words) [4]: ineffective
Fc1ccc(-c2nc3ccccn3c2Nc2ccc(Cl)cc2)c(F)c1 [Compound 18, N-(4-chlorophenyl)−2-(2,4-difluorophenyl)imidazo[1,2-a]pyridin-3-amine] | < 15 µM | – | < 15 µM | < 15 µM | 14.8 ± 0.2 µM | 16.31 ± 0.08 µM | 10.1 ± 0.7 µM | IC50 ([4]; Mus musculus, B16-F10, 24 h): 14.39 ± 0.04 µM
FC(F)(F)c1ccc(-c2nc3ccccn3c2Nc2ccc(Cl)cc2)cc1 [Compound 19, N-(4-chlorophenyl)−2-(4-(trifluoromethyl)phenyl)imidazo[1,2-a]pyridin-3-amine] | – | – | – | – | ≥ 200 µM | 63.9 ± 2.33 µM | 85.5 ± 18.8 µM | IC50 ([4]; Mus musculus, B16-F10, 24 h): ≥ 200 µM
CC(=O)O[C@H]1C(=O)[C@@]2(C)[C@H]([C@H](OC(=O)c3ccccc3)[C@]3(O)C[C@H](OC(=O)[C@H](O)[C@@H](NC(=O)c4ccccc4)c4ccccc4)C(C)=C1C3(C)C)[C@]1(OC(C)=O)CO[C@@H]1C[C@@H]2O [Paclitaxel (Taxol), Paclitaxel, reference compound] | – | – | – | – | 0.00834 µM | 17.2 µM | 0.0166 µM | IC50 ([4]; Mus musculus, B16-F10, 24 h): 55.7 µM
